Columns and labels:
[1] = test system: STING agonist (MSA-2) stimulation; assay: In vivo anti-inflammatory effect of injection administration on STING agonist (MSA-2) stimulation; set-up: species or system C57BL6 female mice; settings: I-77 10mpk, IP
Procedure: 6-8 week C57BL6 female mice, purchased from Shanghai Jihui Experimental Animal Breeding Co., Ltd. Compound preparation method: 2 mg of I-77 powder was taken, 12 µL of PEG400 was added thereto and ultrasonically dissolved, and then 8 µL of Tween 80 was added and ultrasonically mixed to prepare a 100 mg/mL stock solution.
Experimental grouping: The control group was administered vehicle solvent; The model group was administered MSA-2 (10mpk, dissolved in 40% PEG400); The treatment group (I-77) was administered MSA-2 and I-77 (10mpk, IP). A final concentration of […] of I-77 solution was prepared by dilution with double distilled water, and 200 µL of the solution was taken and injected intraperitoneally into the mice in treatment group; The control group and MSA-2 group were injected intraperitoneally with 200 µL of vehicle solvent diluted 10 times. […] After high-speed centrifugation of blood samples, the plasma was taken and diluted by 2 times, and the levels of CXCL10 and IL6 in the plasma were detected using the Lianke ELISA kit. RNA was extracted from heart and kidney samples, and reversed to cDNA, and inflammation related cytokines (ISG15, ISG56, IL6, and IP10) in tissues were detected using qPCR technology. […]

[2] = test system: Trex1-D18N autoimmune mouse model; assay: Inflammatory inhibitory effect of oral administration in Trex1-D18N autoimmune mouse model; type: in vivo; settings: I-77 20mpk, daily for one month, qPCR of Cxcl10/IP10, ISG15, ISG56, IFN-β, IFN-γ, STAT2 in heart, Figure 10
Procedure: The model mice were purchased from GEMPHARMATECH CO., LTD., and the wild-type C57/BL6 mice were also purchased from GEMPHARMATECH CO., LTD.. Compound preparation method: 2 mg of I-77 powder was taken, 12 µL of PEG400 was added thereto and ultrasonically dissolved, and then 8 µL of Tween 80 was added and ultrasonically mixed to prepare a 100 mg/mL stock solution.
Experimental grouping: Wild type mice control group (Control) was administered vehicle solvent; The model mice group (Model) was administered vehicle solvent; The treatment group (I-77) was administered I-77 (20mpk, PO) to the model mice. The mice in the I-77 group were intragastrically administered 200 µL of I-77 solution at a final concentration of […] daily, which was prepared by dilution with double-distilled water; The same dose of vehicle solvent was administered to the remaining groups continuously for one month. The heart was collected from the experimental endpoint samples. RNA extraction was performed on heart samples, and the RNA was reversed to cDNA. Changes in gene expression of inflammation related cytokines (Cxcl10/IP10, ISG15, ISG56, IFN-β, IFN-γ, and STAT2) in the tissues were detected using qPCR technology. Statistical method: One way ANOVA, *P<0.05, **P<0.01, ***P<0.001, ***P<0.0001.

[3] = test system: DMXAA induced ISG gene expression in mouse RAW-Lucia cells; assay: Inhibition of DMXAA-induced ISG gene expression in mouse RAW-Lucia cells (QUANTI-Luc); type: cell-based; settings: STING agonist DMXAA 50 µM, incubated for 24 hours
Procedure, shortened: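 RAW-Lucia cells (4×10^5/mL) stimulated with 50 µM DMXAA and co-incubated 24 h with compound at 10 to 0.004 µM (3-fold steps, 0.1% DMSO). Secreted luciferase in supernatant read with QUANTI-Luc; inhibition calculated against DMXAA-only control, IC50 from four-parameter variable-slope fit constrained 0–100.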

SMILES: CC1(C)C(=O)N(Cc2ccsc2)c2cc(C(=O)Nc3c[nH]c4ccccc34)ccc21 [Example I-77, N-(1H-indol-3-yl)-3,3-dimethyl-2-oxo-1-(thien-3-ylmethyl)indolin-6-carboxamide]
- IL6 and IP10 levels in plasma stimulated by MSA-2 ([1]; 3 hours before MSA-2 (10mpk), plasma ELISA 3 hours after MSA-2, Figure 1): significantly inhibit the increase
- inflammatory response of the heart and kidneys induced by MSA-2 stimulation ([1]; qPCR of ISG15, ISG56, IL6, IP10 in tissues, Figures 2, 3): suppress the inflammatory response
- cardiac inflammation related cytokine expression in the Trex1-D18N model [2]: significantly inhibit the upregulation
- IC50 [3]: 2.28 nM

Source: patent EP4748844A1, “AZETIDINE COMPOUND AND MEDICAL USE THEREOF” (SHANGHAI INSTITUTE OF MATERIA MEDICA, CHINESE ACADEMY OF …, priority 2023, dated 2025)
